# Laboratory results: patent US20180193412A1, “Method of In Vivo Treatment” (Hexima Limited, priority 2015, published 2018)
# System: E. coli
# Assay type: cell-based, Escherichia coli
# Settings: Mueller-Hinton Broth, 37° C., 18 hours, up to 20 μM; read-out: IC50 against E. coli
# Experimental: A single E. coli or B. subtilis colony was used to inoculate 5 ml of Luria-Bertani media and grown overnight at 37° C. The following day, the optical density of the culture was measured and the bacteria diluted to an optical density at 600 nm (OD600) of 0.01 in Mueller-Hinton Broth. Diluted E. coli or B. subtilis were added to 96-well plates with defensins at concentrations of 20 μM, 10 μM, 5 μM, 2.5 μM, 1.25 μM, 0.625 μM or 0.3125 μM. Plates were read at OD595 to obtain time zero data points. Plates were incubated at 37° C. for 18 hours before reading again at OD595 to assess the amount of bacterial growth.
structure (smiles),measurement,value
"CC[C@H](C)[C@H](NC(=O)[C@H](CCCCN)NC(=O)[C@H](CCC(=O)O)NC(=O)[C@H](CCCCN)NC(=O)[C@H](CO)NC(=O)[C@H](CCCCN)NC(=O)[C@H](CCCNC(=N)N)NC(=O)[C@H](Cc1ccccc1)NC(=O)[C@H](Cc1ccccc1)NC(=O)[C@H](CC(=O)O)NC(=O)CNC(=O)[C@H](CC(C)C)NC(=O)[C@@H](N)CC(C)C)C(=O)NCC(=O)N[C@@H](CCCCN)C(=O)N[C@@H](CCC(=O)O)C(=O)N[C@@H](Cc1ccccc1)C(=O)N[C@@H](CCCCN)C(=O)N[C@@H](CCCNC(=N)N)C(=O)N[C@H](C(=O)N[C@H](C(=O)N[C@@H](CCC(N)=O)C(=O)N[C@@H](CCCNC(=N)N)C(=O)N[C@H](C(=O)N[C@@H](CCCCN)C(=O)N[C@@H](CC(=O)O)C(=O)N[C@@H](Cc1ccccc1)C(=O)N[C@@H](CC(C)C)C(=O)N[C@@H](CCCNC(=N)N)C(=O)N[C@@H](CC(N)=O)C(=O)N[C@@H](CC(C)C)C(=O)N[C@H](C(=O)N1CCC[C@H]1C(=O)N[C@@H](CCCNC(=N)N)C(=O)N[C@H](C(=O)N[C@@H](CCC(=O)O)C(=O)N[C@@H](CO)C(=O)O)[C@@H](C)O)C(C)C)[C@@H](C)CC)C(C)C)[C@@H](C)CC [LL37, reference compound]",IC50,2500 nM
